Assay results from patent publication US20070010402A1, “Novel herbicides, usage thereof, novel thienopyrimidine derivatives, intermediates of the same, and process for production thereof” (NIHON NOHYAKU CO., LTD.,, priority 2002, published 2007).

Legend:
Digitaria ciliaris = experiment: Field soil treatment test (Test Example 2); assay type: in vivo; settings: soil spray after seeding, wettable powder, active ingredient 10 g/a, 21st day from the treatment
Procedure: (§1) The herbicidal effect was evaluated in terms of herbicidal rate obtained from the following equation: Herbicidal rate (%)=[1−(Weight of weeds above the ground in a treated plot)/(Weight of weeds above the ground in a non-treated plot)]×100 and was expressed by herbicidal index according to the following criteria. [table] Alluvial soil from a field was put in a resin-made vat having an area of 200 cm^2. After fertilization, the seeds of Digitaria ciliaris, Chenopodium album and Polygonum lapathifolium were cast on the soil and uniformly covered with the soil. The wettable powder obtained in Formulation Example 1 was diluted with water and a predetermined amount thereof was sprayed uniformly to the soil by means of a small-sized power pressure spray so as to give 10 g of the active ingredient per an are. Thereafter, cultivation was further continued in the greenhouse, and the herbicidal effect was examined on the 21st day from the treatment. The results obtained are shown in Table 8 (the compound numbers in Table 8 correspond to those in Tables 1 to 6).

Chenopodium album = experiment: Field soil treatment test (Test Example 2); assay type: in vivo; settings: soil spray after seeding, wettable powder, active ingredient 10 g/a, 21st day from the treatment
Procedure: as §1

Polygonum lapathifolium = experiment: Field soil treatment test (Test Example 2); assay type: in vivo; settings: soil spray after seeding, wettable powder, active ingredient 10 g/a, 21st day from the treatment
Procedure: as §1

Echinochloa oryzicola = experiment: Submerged foliar treatment test (Test Example 3); assay type: in vivo; settings: water depth 3 cm, cotyledon to 1-leaf stage, wettable powder, active ingredient 10 g/a, 28th day from the treatment
Procedure: (§2) The herbicidal effect was evaluated in terms of herbicidal rate obtained from the following equation: Herbicidal rate (%)=[1−(Weight of weeds above the ground in a treated plot)/(Weight of weeds above the ground in a non-treated plot)]×100
(§3) and was expressed by herbicidal index according to the following criteria.
(§4) Alluvial soil from a paddy field was put in a resin-made vat having an area of 200 cm^2. After fertilization, seeds of Echinochloa oryzicola, Rotala indica and Scirpus juncoides were cast on the soil and uniformly covered with the soil, and water was poured onto the soil to keep a water depth of 3 cm. Then, cultivation was continued in a greenhouse, and when the weeds to be tested reached the cotyledon stage to 1-leaf stage, the wettable powder obtained in Formulation Example 1 was diluted with water and a predetermined amount thereof was added dropwise uniformly to the weeds by means of a pipette to give 10 g of the active ingredient per an are. Thereafter, cultivation was further continued in the greenhouse, and the herbicidal effect was examined on the 28th day from the treatment. The results obtained are shown in Table 9 (the compound numbers in Table 9 correspond to those in Tables 1 to 6).

Scirpus juncoides = experiment: Submerged foliar treatment test (Test Example 3); assay type: in vivo; settings: water depth 3 cm, cotyledon to 1-leaf stage, wettable powder, active ingredient 10 g/a, 28th day from the treatment
Procedure: as §2, §3, §4

Rotala indica = experiment: Submerged foliar treatment test (Test Example 3); assay type: in vivo; settings: water depth 3 cm, cotyledon to 1-leaf stage, wettable powder, active ingredient 10 g/a, 28th day from the treatment
Procedure: as §2, §3, §4

melting point	Structure (SMILES)	Herbicidal effect Digitaria ciliaris (herbicidal index) (Digitaria ciliaris)	Herbicidal effect Chenopodium album (herbicidal index) (Chenopodium album)	Herbicidal effect Polygonum lapathifolium (herbicidal index) (Polygonum lapathifolium)	Herbicidal effect Echinochloa oryzicola (herbicidal index) (Echinochloa oryzicola)	Herbicidal effect Scirpus juncoides (herbicidal index) (Scirpus juncoides)	Herbicidal effect Rotala indica (herbicidal index) (Rotala indica)
	Cc1cc2c(-c3cccc(C(F)(F)F)c3)nc(OS(C)(=O)=O)nc2s1 [6-148]	5 (91 to 100)	5 (91 to 100)	4 (71 to 90)			
	Cc1cc2c(-c3cccc(C(F)(F)F)c3)nc(OS(=O)(=O)CCl)nc2s1 [6-149]				5 (91 to 100)	4 (71 to 90)	5 (91 to 100)
	Cc1cc2c(-c3cccc(C(F)(F)F)c3)nc(OS(=O)(=O)CCCCl)nc2s1 [6-157]				5 (91 to 100)	4 (71 to 90)	5 (91 to 100)
	Cc1cc2c(-c3cccc(C(F)(F)F)c3)nc(OS(=O)(=O)N(C)C)nc2s1 [6-160]				5 (91 to 100)	4 (71 to 90)	5 (91 to 100)
	Cc1cc2c(-c3cccc(SC(F)(F)F)c3)nc(OS(C)(=O)=O)nc2s1 [6-164]				5 (91 to 100)	4 (71 to 90)	5 (91 to 100)
	Cc1cc2c(-c3cccc(C(F)(F)F)c3)nc(N(C)C)nc2s1 [6-169]				5 (91 to 100)	2 (31 to 50)	5 (91 to 100)
	Cc1cc2c(-c3cccc(C(F)(F)F)c3)nc(S(C)(=O)=O)nc2s1 [6-174]				1 (6 to 30)	3 (51 to 70)	5 (91 to 100)
	Cc1cc2c(-c3cccc(C(F)(F)F)c3)nc(-n3cccc3)nc2s1 [6-189]	5 (91 to 100)	4 (71 to 90)	3 (51 to 70)			
	Cc1cc2c(-c3ccccc3C(F)(F)F)nc(-n3ccnc3)nc2s1 [6-191]				5 (91 to 100)	3 (51 to 70)	5 (91 to 100)
	Cc1cc2c(-c3cccc(C(F)(F)F)c3)nc(-n3ccc(C(F)(F)F)n3)nc2s1 [6-198]	5 (91 to 100)	5 (91 to 100)	5 (91 to 100)			
	Cc1cc2c(-c3cccc(OC(F)(F)F)c3)nc(-n3ccc(C(F)(F)F)n3)nc2s1 [6-199]	5 (91 to 100)	5 (91 to 100)	5 (91 to 100)			
	Cc1cc2c(-n3ccc(C(F)(F)F)n3)nc(-n3ccc(C(F)(F)F)n3)nc2s1 [6-200]				3 (51 to 70)	3 (51 to 70)	5 (91 to 100)
	Cc1cc2c(Oc3cccc(C(F)(F)F)c3)nc(-n3ccc(C(F)(F)F)n3)nc2s1 [6-201]				5 (91 to 100)	3 (51 to 70)	5 (91 to 100)
251 to 253 °C (dec.)	Cc1cc2c(-c3cccc(C(F)(F)F)c3)nc(O)nc2s1 [Compound No. 4-3, 6-methyl-4-[3-(trifluoromethyl)phenyl]thieno[2,3-d]pyrimidine-2-ol]						
> 300 °C	Cc1cc2c(-c3cccnc3Cl)nc(O)nc2s1 [Compound No. 4-22, 4-(2-chloropyridine-3-yl)-6-methylthieno[2,3-d]pyrimidine-2-ol]						
	Cc1cc2c(-c3ccccc3C(F)(F)F)nc(Cl)nc2s1 [Compound No. 5-3]				5 (91 to 100)	3 (51 to 70)	5 (91 to 100)
108 °C	Cc1cc2c(-c3cccc(C(F)(F)F)c3)nc(Cl)nc2s1 [Compound No. 5-4, 2-chloro-6-methyl-4-[3-(trifluoromethyl)phenyl]thieno[2,3-d]pyrimidine]						
